Experimental data reported in patent US9963684B2 (priority 2014, dated 2018).
Values joined by “and” are separate entries in the source; they are usually repeats but may differ in a detail not shown here. Equal entries are not always repeated. Where two headings read alike, the source gives them in different places.

Test system: formaldehyde dehydrogenase
Type: biochemical, Burkholderia multivorans
[1] = metal ion 1 mM in enzyme reaction solution
[2] = metal ion 5 mM in enzyme reaction solution

Structure (SMILES)	Relative activity (%) [1] [%]	Relative activity (%) [2] [%]	Relative activity (%)	enzyme activity in the presence of metal ion versus without it (5 frill Mg^2+) [times]
[Ba+2].[Cl-].[Cl-] [BaCl2]	98.55	115.1	–	–
[Ca+2].[Cl-].[Cl-] [CaCl2]	50.67	75.96	–	–
[Cl-].[Cl-].[Co+2] [CoCl2]	–	–	58.39% and 72.60%	–
O=S(=O)([O-])[O-].[Cu+2] [CuSO4]	124.3	91.30	–	–
[Cl-].[K+] [KCl]	104.0	94.49	–	–
[Cl-].[Cl-].[Mg+2] [MgCl2]	147.8	269.6	–	2.7
[Cl][Mn][Cl] [MnCl2]	62.32	111.6	–	–
[Cl-].[Cl-].[Zn+2] [ZnCl2]	63.99	192.2	–	–
